Source: paper PMC10931479, “Exploration of hypoglycemic peptides from porcine collagen based on network pharmacology and molecular docking” (PLOS ONE, 2024)
Entries after “also recorded” stand apart in the source; their conditions may differ.

Tested on: α-glucosidase
Test: α-Glucosidase activity inhibition test (pNPG)
Format: biochemical
Conditions: 0.1 to 0.7 mg/mL; in vitro; comparison with acarbose where stated
Protocol: The samples were prepared at different concentrations (1-7 mg/mL), and the following compounds were prepared: α-glucosidase (0.1 Ua), PBS (pH 6.8, 0.05 mol/L), PNPG (2.5 mmol/L), and Na2CO3 (1 mol/L). The control, sample blank, and sample groups were incubated at their appropriate temperature and time, and the absorbance at 405 nm was measured using a microplate reader. The inhibitory activity was calculated using Eq (2). The inhibition rate of α-glucosidase was solved according to the concentration of different mass samples. The IC50 values were calculated based on the fitting curves. […] All experiments were conducted in triplicate and the data are expressed as the mean ± standard deviation (SD). Statistical analysis was performed using SPSS 27.0 software with Duncan's multiple and one-way ANOVA tests to determine the differences among the mean values. The mapping was done using prism and bioinformatics tools (http://www.bioinformatics.com.cn/).

Substance	Inhibition of α-glucosidase in words
NWYR [tetrapeptide from in silico trypsin hydrolysis of porcine collagen BAX02569.1, synthesized by solid-phase synthesis]	significantly inhibited α-glucosidase activity in a concentration-dependent manner; also recorded: no significant difference between them and acarbose; also recorded: the inhibitory effect of NWYR was stronger

Tested on: not given
Test: not given
Conditions: peptides from bovine skin collagen; cited from earlier work
Excerpt: (§1) At present, dietary proteins isolated from black beans, fermented soybean, balsam pear, and other sources have been identified as having anti-diabetic peptide properties. In vitro experiments have confirmed the hypoglycemic effects of many of these peptides, with some outperforming clinical drugs. […] He L, et al. isolated five peptides (GPVGPPG, GPPGPT, APGGAP, FGPGP, and GPVG) from bovine skin colla ...

Substance	Anti-diabetic properties
APGGAP [peptide from bovine skin collagen]	exhibited anti-diabetic properties
FGPGP [peptide from bovine skin collagen]	exhibited anti-diabetic properties
GPPGPT [peptide from bovine skin collagen]	exhibited anti-diabetic properties
GPVG [peptide from bovine skin collagen]	exhibited anti-diabetic properties
GPVGPPG [peptide from bovine skin collagen]	exhibited anti-diabetic properties

Tested on: α-glucosidase
Test: not given
Conditions: peptides from silkworm pupae; cited from earlier work
Excerpt: as §1

Substance	Suppression of α-glucosidase activity
NSPR [peptide from silkworm pupae]	can suppress α-glucosidase activity
QPGR [peptide from silkworm pupae]	can suppress α-glucosidase activity
QPPT [peptide from silkworm pupae]	can suppress α-glucosidase activity
SQSPA [peptide from silkworm pupae]	can suppress α-glucosidase activity
